Laboratory results: patent US6916845B2, “Method for prevention and treatment of male and female sexual dysfunction” (priority 1999, dated 2005)
Like-named read-outs stand apart in the source and are kept apart here. Marks after values point to notes of the source that are not given here.

How the values were obtained:
[1] = tested on: cGMP formation in clitoris CC of female rabbits; assay: cGMP formation in CC of clitoris stimulated with SNP, radioimmunoassay; assay type: cell-based, rabbit
[2] = tested on: PDE4 isolated from human liver tissue; assay: Inhibition of cAMP specific PDE4, two-step radioisotope procedure; assay type: biochemical
Protocol: (§1) PDE5 and PDE4 were isolated from human platelets and liver tissue using a Pharmacia FPLC system and Mono Q column. The cyclic nucleotide PDE5/PDE4 activities in FPLC fractions were determined using a modification of the two-step radioisotope procedure ([^3H]GMP/[^3H]AMP).

nNOS mRNA = nNOS mRNA expression in penis of castrated rat model by RT-PCR; assay type: in vivo; conditions: for Mean conc./area (nNOS) / Ratio (nNOS/β-actin): castrated, 3 months
Protocol: (§2) Male Wistar rats(300-350 g)(n=24) randomly divide into 4 Groups; Group A for control; Group B for castrated and administration normal saline; Group C for castrated and oral administration Icariin […]; Group D for castrated and oral administration Icariin (5 mg/kg) for 3 months. After observe mating behavior, the animal was killed, the penis was excised rapidly, and cut into four parts. One of them used for immuohistochemical stain, the others was socked into RNAlater and stored in −70 condition. nNOS, eNOS, iNOS mRNA were semi-quantified by RT-PCR, β-actin as a controls. Specificity of RT-PCR products was confirmed by sequencing procedure, with-assay and between-assay variation was carried out respectively.

adult male rat [3] = assay: Intracavernosal press (ICP) changes after intracavernosal administration and cavernous nerve electrical stimulation; assay type: in vivo; conditions: CN stimulation 10 minutes later
Protocol: (§3) Twenty-four male, adult Wistar rats(weight:300-350 g) were used. After anesthetization, the left carotid artery was cannulated to monitor mean arterial pressure (MAP). Bipolar electrodes were positioned on the cavernous nerve (CN); the right cavernous body was cannulated with 26 G needle connected with Biopack MP100 to monitor ICP changes. After intracavemosal administration of 100 μl different concentration Icariin or Reserpine (10^−8M to 10^−4M) respectively, the CN was electrically stimulated (ES) 10 minutes later and ICP and MAP were monitored. In order to investigate the possible mechanism of the effect of icariin on ICP changes, 100 μl different concentration guanylate cyclase inhibitor ODQ (10^−8M-10^−4M) were intracavemosal administrated 10 minutes after Icariin (100 μl 10^−4M) administration into CC, and then the ICP was measured during erection, which was, followed the ES.

adult male rat [4] = conditions: in vivo
Protocol: as §3

[5] = tested on: castrated male Wistar rats; assay: Sexual activities (mating behavior) in castrated rat model after long-term oral administration; assay type: in vivo; conditions: Group C and D, oral icariin for 3 months, n=10/12
Protocol: as §2

[6] = tested on: rabbit's CC smooth muscle; assay: Relaxation of PHE pre-contracted corpus cavernosum smooth muscle strips in organ chamber; assay type: cell-based
Protocol: Sixty adults male New Zealand white rabbits(Weight: 2.5-3.0 kg) were used. Rabbits were anesthesia with sodium pentobarbital(50 mg/kg), penis was removed and corpus cavernous tissue were carefully isolated and made into 2×2×6 mm muscle strips for isometric tension was measured in organ chamber in vitro study with polygraph(MP 100 WS:Biopac systems, USA). CC muscle strip was fixed in 10 ml organ chamber containing Tyrode solution and continuously supplied with mixed gas(95% O2 and 5% CO2) and keep temperature at 37° C. The initial resting tensions of muscle strips were set at 2 g and tissue was allowed to equilibrate for 1.5-3.0 hours. Sub-maximal contractile responses to phenylepherine(PHE 5×10^-6 M) were observed and optimal isometric tension was determined. To evaluate the relaxation effects of icariin (the other components magnoflorine, querectin, epimedin A, B and C as the controls) on CC muscle strips, investigated the relaxation effects of different dosage of icariin on muscle strips pre-contracted by PHE. And to investigate the pharmaceutical action mechanism, the effects of […] Nω-nitric-L-arginine(L-NNA), guanylate cyclase antagonist methylene blue and pyrogallol, soluble guanylate cyclase inhibitor 1H-[1,2,4]oxadiazolo[4,3,-a]quinoxalin-1-one (ODQ) on the relaxation effects of icariin on CC.

SD rat = assay type: in vivo; conditions: for LDso: once subcutaneously, after 7 days
Protocol: To investigate an acute toxicity of icariin, icariin was administered to SD rat. Total of 50 rats divide into 5 groups randomly and each group included 5 male and 5 female rats, respectively. The maximum dosage group for 3.0 g/kg, medium dosage group for 2.0 g/kg, sub-medium group for 1.0 g/kg and the minimum dosage group for 0.5 g/kg and comparative group for physiological saline solution only. Each of the drugs was once administered subcutaneously. After 7 days, it was shown that LDso of male was 1.88 g/kg and female was 1.96 g/kg.

[7] = tested on: cAMP formation in rabbit corpus cavernosum; assay: cAMP formation in corpus cavernosum of penis stimulated with SNP, radioimmunoassay; assay type: cell-based
[8] = target: T1, PDE5 isolated from human platelets (Homo sapiens, UniProt O76074); assay: Inhibition of cGMP specific PDE5, two-step radioisotope procedure; assay type: biochemical
T1 construct: PDE5 and PDE4 were isolated from human platelets and liver tissue using a Pharmacia FPLC system and Mono Q column; from tissue; host or cells: human platelets
Protocol: as §1

[9] = tested on: cGMP formation in rabbit corpus cavernosum; assay: cGMP formation in corpus cavernosum of penis stimulated with SNP, radioimmunoassay; assay type: cell-based; conditions: in the presence of SNP
iNOS mRNA = iNOS mRNA expression in penis of castrated rat model by RT-PCR; assay type: in vivo; conditions: for Mean conc./area (iNOS) / Ratio (iNOS/β-actin): castrated, 3 months
Protocol: as §2

Compound: COc1ccc(-c2oc3c(CC=C(C)C)c(O[C@@H]4O[C@H](CO)[C@@H](O)[C@H](O)[C@H]4O)cc(O)c3c(=O)c2O[C@@H]2O[C@@H](C)[C@H](O)[C@@H](O)[C@H]2O)cc1 [Icariin, icariin]
- cGMP concentration in clitoris CC [1]: significantly increased
- EC50 ([1]; Oryctolagus cuniculus, read-out: EC50 (cGMP formation, CC of clitoris)): 3.16 µM
- IC50 [2]: 73.5 µM
- nNOS mRNA compared to control Group B (nNOS mRNA; Group C and D, p<0.05): significantly increased
- Mean conc./area (nNOS) (nNOS mRNA; Group C, oral Icariin (mg/kg)): 44.60
- Ratio (nNOS/β-actin) (nNOS mRNA; Group C, oral Icariin (mg/kg)): 0.82*
- Mean conc./area (nNOS) (nNOS mRNA; Group D, oral Icariin 5 mg/kg): 36.40
- Ratio (nNOS/β-actin) (nNOS mRNA; Group D, oral Icariin 5 mg/kg): 1.08*
- Increase ICP (adult male rat [3]; 100 μl 10^−4M intracavernosal): 58.01 ± 5.78%
- Increase ICP (adult male rat [3]; 100 μl 10^−5M intracavernosal): 30.48 ± 3.06%
- Increase ICP (adult male rat [3]; 100 μl 10^−6M intracavernosal): 10.82 ± 1.06%
- Increase ICP (adult male rat [3]; 100 μl 10^−7M intracavernosal): 5.53 ± 0.69%
- influence on MAP (adult male rat [4]): no obviously influence
- castrated rats restored sexual activities [5]: 83.3%
- EC50 ([6]; Oryctolagus cuniculus, read-out: EC50 on the relaxation effects of CC smooth muscle): 467 µM
- relaxation effects on pre-contracted CC muscle strips ([6]; icariin 10^−4M): 23.12 ± 1.36%
- relaxation effects on pre-contracted CC muscle strips ([6]; icariin 10^−5M): 4.42±1.08%
- relaxation effects on pre-contracted CC muscle strips ([6]; icariin 10^−6M): 1.23±0.82%
- relaxation effects on pre-contracted CC muscle strips ([6]; icariin 10^−7M): 0.08±0.04%
- acute toxicity (SD rat; SD rat, subcutaneous): low toxicity
- LDso (SD rat; female SD rat): 1960 mg/kg
- LDso (SD rat; male SD rat): 1880 mg/kg
- influence on cAMP levels [7]: no significantly influenced
- IC50 [8]: 0.432 µM
- inhibiting potency on PDE5 weaker than that of Sildenafil [8]: 108.10 times
- specificity of inhibition PDE5 compared to PDE4 ([8]; ratio of IC50 PDE4/PDE5): 170.14 times
- cGMP concentration changes ([9]; 10^−3M): 10.43 ± 1.49 fmol/mg/min
- cGMP concentration changes ([9]; 10^−4M): 10.82 ± 1.58 fmol/mg/min
- cGMP concentration changes ([9]; 10^−5M): 8.92 ± 1.67 fmol/mg/min
- cGMP concentration changes ([9]; 10^−6M): 8.66 ± 2.03 fmol/mg/min
- iNOS mRNA compared to control Group B (iNOS mRNA; Group C and D, p<0.05): significantly increased
- Mean conc./area (iNOS) (iNOS mRNA; Group C, oral Icariin (mg/kg)): 17.28
- Ratio (iNOS/β-actin) (iNOS mRNA; Group C, oral Icariin (mg/kg)): 0.50*
- Mean conc./area (iNOS) (iNOS mRNA; Group D, oral Icariin 5 mg/kg): 23.20
- Ratio (iNOS/β-actin) (iNOS mRNA; Group D, oral Icariin 5 mg/kg): 0.74*
